Assay results published in patent EP0183129A1, “Quinolonecarboxylic acid derivatives” (KYORIN PHARMACEUTICAL CO., LTD., priority 1984, dated 1986).
Values after ≈ are worked out from the molar mass of the structure shown.

What was measured:
[1] = system: Bacillus subtilis PCI 219; assay: In vitro antibacterial activity, MIC (standard strain); type: cell-based; conditions: PCI219; Bacillus subtilis PCI 219; 10^6 cells/ml; standard strain; read-out: MIC
[2] = system: Staphylococcus aureus 209 P; assay: as above; type: cell-based; conditions: Staphylococcus aureus 209 P; 10^6 cells/ml; standard strain; read-out: MIC
[3] = system: S. aureus IID 670 (Terajima); assay: as above; type: cell-based, Staphylococcus aureus; conditions: Staphylococcus aureus, IID670, S. aureus IID 670 (Terajima); 10^6 cells/ml; standard strain; read-out: MIC
[4] = system: S. epidermidis IID 866; assay: as above; type: cell-based; conditions: Staphylococcus epidermidis, IID866, S. epidermidis IID 866; 10^6 cells/ml; standard strain; read-out: MIC
[5] = system: S. pyogenes IID 692; assay: as above; type: cell-based; conditions: Streptococcus pyogenes, IID692; S. pyogenes IID 692; 10^6 cells/ml; standard strain; read-out: MIC
[6] = system: S. faecalis IID 682; assay: as above; type: cell-based; conditions: Enterococcus faecalis, IID682; S. faecalis IID 682; 10^6 cells/ml; standard strain; read-out: MIC
[7] = system: P. mirabilis IID 994; assay: as above; type: cell-based; conditions: Proteus mirabilis, IID994; P. mirabilis IID 994; 10^6 cells/ml; standard strain; read-out: MIC
[8] = system: Citrobacter freundii IID 976; assay: as above; type: cell-based; conditions: IID976; Citrobacter freundii IID 976; 10^6 cells/ml; standard strain; read-out: MIC
[9] = system: K. pneumoniae 1-220S; assay: as above; type: cell-based; conditions: Klebsiella pneumoniae, 1220S; K. pneumoniae 1-220S; 10^6 cells/ml; standard strain; read-out: MIC
[10] = system: Shigella sonnei IID 969; assay: as above; type: cell-based; conditions: IID969, 10^6 cells/ml
Experimental: Experiment-1 In vitro antibacterial activity
The in vitro antibacterial activity against gram-positive and gram-negative bacteria has been investivated.
The minimum inhibitory concentration (MIC) was determined in accordance with the method recommended by Japan Society of Chemotherapy.

[11] = system: Yersinia enterocolitica IID 981; assay: as above; type: cell-based; conditions: IID981; Yersinia enterocolitica IID 981; 10^6 cells/ml; standard strain; read-out: MIC
[12] = system: Pseudomonas aeruginosa V-1; assay: as above; type: cell-based; conditions: V1; Pseudomonas aeruginosa V-1; 10^6 cells/ml; standard strain; read-out: MIC
[13] = system: Alcaligenes faecalis 0104002; assay: as above; type: cell-based; conditions: Alcaligenes faecalis, 0104002, Alcaligenes faecalis 0104002; 10^6 cells/ml; standard strain; read-out: MIC
[14] = system: Bacteroides fragilis GM 7000; assay: as above; type: cell-based; conditions: GM7000; Bacteroides fragilis GM 7000; 10^6 cells/ml; standard strain; read-out: MIC
[15] = system: B. fragilis 25285; assay: as above; type: cell-based, Bacteroides fragilis; conditions: Bacteroides fragilis, 25285, B. fragilis 25285; 10^6 cells/ml; standard strain; read-out: MIC
[16] = system: S. pneumoniae 2054; assay: In vitro antibacterial activity, MIC (clinical isolates); type: cell-based; conditions: Streptococcus pneumoniae; S. pneumoniae 2054; 10^6 cells/ml; clinical isolate; read-out: MIC
[17] = system: S. pneumoniae 2950; assay: as above; type: cell-based; conditions: Streptococcus pneumoniae; S. pneumoniae 2950; 10^6 cells/ml; clinical isolate; read-out: MIC
[18] = system: S. pneumoniae 3227; assay: as above; type: cell-based; conditions: Streptococcus pneumoniae; S. pneumoniae 3227; 10^6 cells/ml; clinical isolate; read-out: MIC
[19] = system: S. pyogenes 4340; assay: as above; type: cell-based; conditions: Streptococcus pyogenes; S. pyogenes 4340; 10^6 cells/ml; clinical isolate; read-out: MIC
[20] = system: S. pyogenes 4372; assay: as above; type: cell-based; conditions: Streptococcus pyogenes; S. pyogenes 4372; 10^6 cells/ml; clinical isolate; read-out: MIC
[21] = system: S. agalactiae 4394; assay: as above; type: cell-based; conditions: Streptococcus agalactiae; S. agalactiae 4394; 10^6 cells/ml; clinical isolate; read-out: MIC
[22] = system: S. agalactiae 4342; assay: as above; type: cell-based; conditions: Streptococcus agalactiae; S. agalactiae 4342; 10^6 cells/ml; clinical isolate; read-out: MIC
[23] = system: S. faecalis 401; assay: as above; type: cell-based; conditions: Enterococcus faecalis; S. faecalis 401; 10^6 cells/ml; clinical isolate; read-out: MIC
[24] = system: E. coli ML4707; assay: In vivo antibacterial activity against systemic infection in mice; parameters: species or system mice (ICR-S); conditions: for ED50: Escherichia coli, ML4707, mice (ICR-S), oral, an hour after intraperitoneal infection, challenge dose 2.7 x 10^6 ~ 8.8 x 10^6 cfu/mouse, read-out: ED50 E. coli ML4707; for activity against gram-negative bacterial infections compared with the reference compounds: systemic infection in mice, result in words
Experimental: Experiment-2 In vivo antibacterial activity against systemic infection in mice (ICR-S)
The infections were produced by intraperitoneal injection of a suspension of the bacterial culture corresponding to the germ studied. The products were administered orally at an hour after the infection.

In the case of `CNCC1CCN(c2c(F)cc3c(=O)c(C(=O)O)cn(C4CC4)c3c2Br)C1` (stereo not drawn) [Example 16, 8-Bromo-1-cyclopropyl-6-fluoro-1,4-dihydro-7-(3-methylaminomethyl-l-pyrrolidinyl)-4-oxo-3-quinolinecarboxylic acid], the MIC [1] is reported as 0.0125 µg/mL (≈ 0.0285 µM), the MIC [2] is reported as 0.0125 µg/mL (≈ 0.0285 µM) and the MIC [3] is reported as 0.025 µg/mL (≈ 0.057 µM). For the same compound, the MIC [4] was 0.025 µg/mL (≈ 0.057 µM), the MIC [5] was 0.1 µg/mL (≈ 0.228 µM) and the MIC [6] was 0.05 µg/mL (≈ 0.114 µM). The MIC [7] was 0.025 µg/mL (≈ 0.057 µM), the MIC [8] was 0.05 µg/mL (≈ 0.114 µM) and the MIC [9] was 0.1 µg/mL (≈ 0.228 µM). It also gave an MIC [10] of 0.025 µg/mL (≈ 0.057 µM), an MIC [11] of 0.1 µg/mL (≈ 0.228 µM) and an MIC [12] of 0.2 µg/mL (≈ 0.456 µM). For the same compound, the MIC [13] was 0.39 µg/mL (≈ 0.89 µM), the MIC [14] was 0.2 µg/mL (≈ 0.456 µM) and the MIC [15] was 0.1 µg/mL (≈ 0.228 µM). For the same compound, the MIC [16] was 0.05 µg/mL (≈ 0.114 µM), the MIC [17] was 0.05 µg/mL (≈ 0.114 µM) and the MIC [18] was 0.05 µg/mL (≈ 0.114 µM). For the same compound, the MIC [19] was 0.05 µg/mL (≈ 0.114 µM), the MIC [20] was 0.05 µg/mL (≈ 0.114 µM) and the MIC [21] was 0.1 µg/mL (≈ 0.228 µM). The MIC [22] was 0.05 µg/mL (≈ 0.114 µM), the MIC [23] was 0.1 µg/mL (≈ 0.228 µM) and the ED50 [24] was 1.9 mg/kg.
Compound `CCNCC1CCN(c2c(F)cc3c(=O)c(C(=O)O)cn(C4CC4)c3c2Br)C1` (stereo not drawn) [Example 17, 8-Bromo-l-cyclopropyl-7-(3-ethylaminomethyl-l-pyrrolidinyl)-6-fluoro-1,4-dihydro-4-oxo-3-quinolinecarboxylic acid] has an MIC [1] of 0.0125 µg/mL (≈ 0.0276 µM), an MIC [2] of 0.0125 µg/mL (≈ 0.0276 µM) and an MIC [3] of 0.025 µg/mL (≈ 0.0553 µM). It also gave an MIC [4] of 0.025 µg/mL (≈ 0.0553 µM), an MIC [5] of 0.05 µg/mL (≈ 0.111 µM) and an MIC [6] of 0.05 µg/mL (≈ 0.111 µM). The MIC [7] was 0.025 µg/mL (≈ 0.0553 µM), the MIC [8] was 0.05 µg/mL (≈ 0.111 µM) and the MIC [9] was 0.1 µg/mL (≈ 0.221 µM). It also gave an MIC [10] of 0.025 µg/mL (≈ 0.0553 µM), an MIC [11] of 0.1 µg/mL (≈ 0.221 µM) and an MIC [12] of 0.39 µg/mL (≈ 0.862 µM). The MIC [13] was 0.39 µg/mL (≈ 0.862 µM), the MIC [14] was 0.1 µg/mL (≈ 0.221 µM) and the MIC [15] was ≤ 0.05 µg/mL. The MIC [16] was 0.05 µg/mL (≈ 0.111 µM), the MIC [17] was 0.05 µg/mL (≈ 0.111 µM) and the MIC [18] was 0.05 µg/mL (≈ 0.111 µM). For the same compound, the MIC [19] was 0.05 µg/mL (≈ 0.111 µM), the MIC [20] was 0.05 µg/mL (≈ 0.111 µM) and the MIC [21] was 0.1 µg/mL (≈ 0.221 µM). It also gave an MIC [22] of 0.05 µg/mL (≈ 0.111 µM), an MIC [23] of 0.1 µg/mL (≈ 0.221 µM) and an ED50 [24] of 0.9 mg/kg. For the same compound, the “activity against gram-negative bacterial infections compared with the reference compounds” value [24] was “greater activity against gram-negative bacterial infections than the reference compounds”.
`CN(C)CC1CCN(c2c(F)cc3c(=O)c(C(=O)O)cn(C4CC4)c3c2Cl)C1` (stereo not drawn) [Example 20, 8-Chloro-1-cyclopropyl-6-fluoro-1,4-dihydro-7-(3-dimethylaminomethyl-l-pyrrolidinyl)-4-oxo-3-quinolinecarboxylic acid] was tested, and the MIC [1] was 0.025 µg/mL (≈ 0.0613 µM), the MIC [2] was 0.025 µg/mL (≈ 0.0613 µM) and the MIC [3] was 0.05 µg/mL (≈ 0.123 µM). It also gave an MIC [4] of 0.05 µg/mL (≈ 0.123 µM), an MIC [5] of 0.1 µg/mL (≈ 0.245 µM) and an MIC [6] of 0.1 µg/mL (≈ 0.245 µM). The MIC [7] was 0.05 µg/mL (≈ 0.123 µM), the MIC [8] was 0.05 µg/mL (≈ 0.123 µM) and the MIC [9] was 0.1 µg/mL (≈ 0.245 µM). It also gave an MIC [10] of 0.05 µg/mL (≈ 0.123 µM), an MIC [11] of 0.1 µg/mL (≈ 0.245 µM) and an MIC [12] of 0.39 µg/mL (≈ 0.956 µM). The MIC [13] was 0.39 µg/mL (≈ 0.956 µM), the MIC [14] was 0.1 µg/mL (≈ 0.245 µM) and the MIC [15] was ≤ 0.05 µg/mL. For the same compound, the MIC [16] was 0.1 µg/mL (≈ 0.245 µM), the MIC [17] was 0.05 µg/mL (≈ 0.123 µM) and the MIC [18] was 0.1 µg/mL (≈ 0.245 µM). The MIC [19] was 0.05 µg/mL (≈ 0.123 µM), the MIC [20] was 0.1 µg/mL (≈ 0.245 µM) and the MIC [21] was 0.2 µg/mL (≈ 0.49 µM). The MIC [22] was 0.1 µg/mL (≈ 0.245 µM), the MIC [23] was 0.1 µg/mL (≈ 0.245 µM) and the ED50 [24] was 2.1 mg/kg.
Work on `CN(C)CC1CCN(c2c(F)cc3c(=O)c(C(=O)O)cn(C4CC4)c3c2F)C1` (centres unmarked) [Example 21, 1-Cyclopropyl-6,8-difluoro-1,4-dihydro-7-(3-dimethylaminomethyl-1-pyrrolidinyl)-4-oxo-3-quinolinecarboxylic acid] yielded an MIC [1] of 0.05 µg/mL (≈ 0.128 µM), an MIC [2] of 0.05 µg/mL (≈ 0.128 µM) and an MIC [3] of 0.05 µg/mL (≈ 0.128 µM). For the same compound, the MIC [4] was 0.05 µg/mL (≈ 0.128 µM), the MIC [5] was 0.2 µg/mL (≈ 0.511 µM) and the MIC [6] was 0.2 µg/mL (≈ 0.511 µM). It also gave an MIC [7] of 0.1 µg/mL (≈ 0.255 µM), an MIC [8] of 0.05 µg/mL (≈ 0.128 µM) and an MIC [9] of 0.2 µg/mL (≈ 0.511 µM). It also gave an MIC [10] of 0.05 µg/mL (≈ 0.128 µM), an MIC [11] of 0.1 µg/mL (≈ 0.255 µM) and an MIC [12] of 0.39 µg/mL (≈ 0.996 µM). For the same compound, the MIC [13] was 0.78 µg/mL (≈ 1.99 µM), the MIC [14] was 0.39 µg/mL (≈ 0.996 µM) and the MIC [15] was 0.2 µg/mL (≈ 0.511 µM). The MIC [16] was 0.2 µg/mL (≈ 0.511 µM), the MIC [17] was 0.1 µg/mL (≈ 0.255 µM) and the MIC [18] was 0.2 µg/mL (≈ 0.511 µM). For the same compound, the MIC [19] was 0.1 µg/mL (≈ 0.255 µM), the MIC [20] was 0.2 µg/mL (≈ 0.511 µM) and the MIC [21] was 0.2 µg/mL (≈ 0.511 µM). It also gave an MIC [22] of 0.2 µg/mL (≈ 0.511 µM), an MIC [23] of 0.2 µg/mL (≈ 0.511 µM) and an ED50 [24] of 1.2 mg/kg. For the same compound, the “activity against gram-negative bacterial infections compared with the reference compounds” value [24] was “greater activity against gram-negative bacterial infections than the reference compounds”.
